According to patent US7906655B2, “Hepatitis C virus inhibitors” (Bristol-Myers Squibb Company, priority 2008, dated 2011):

System: HCV 1b genotype
Assay: HCV Replicon assay (HCV-neo replicon cells, wild-type)
Assay type: cell-based
Settings: HCV 1b genotype replicon
Method in brief: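 Assay used wild-type HCV genotype 1b replicon cells carrying neo, with luciferase reporter read-outs in some formats.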

[1] = Hepatitis C virus, class symbols
[2] = Hepatitis C virus, numeric values

Compound | EC50 [1] [nM] | further results
CC(=O)N1CCN(C(=O)OCc2ccccc2)[C@H](c2nc3cc(CCc4ccc5[nH]c([C@@H]6CN(C(C)=O)CCN6C(=O)OCc6ccccc6)nc5c4)ccc3[nH]2)C1 (stereo in doubt) [OL11, benzyl 4-acetyl-2-(5-(2-(2-(4-acetyl-1-((benzyloxy)carbonyl)-2-piperazinyl)-1H-benzimidazol-6-yl)ethyl)-1H-benzimidazol-2-yl)-1-piperazinecarboxylate] | 100 to 999 | 
O=C(C1CC1)N1CCC[C@H]1c1nc2ccc(CCc3ccc4nc([C@@H]5CCCN5C(=O)C5CC5)[nH]c4c3)cc2[nH]1 [Example M41, 2-((2S)-1-(cyclopropylcarbonyl)-2-pyrrolidinyl)-5-(2-(2-((2S)-1-(cyclopropylcarbonyl)-2-pyrrolidinyl)-1H-benzimidazol-6-yl)ethyl)-1H-benzimidazole] |  | EC50 [2]: 460 nM
CC(=O)N1CCC[C@H]1c1nc2ccc(C#Cc3ccc4[nH]c([C@@H]5CCCN5C(=O)[C@@H]5CCCN5C)nc4c3)cc2[nH]1 [Example M54.27, 5-((2-((2S)-1-acetyl-2-pyrrolidinyl)-1H-benzimidazol-6-yl)ethynyl)-2-((2S)-1-(1-methyl-L-prolyl)-2-pyrrolidinyl)-1H-benzimidazole] | 1000 to 10000 | 
COC(=O)N[C@@H](C(=O)N1CCC[C@H]1c1nc2c(-c3ncc(-c4ccc5[nH]c([C@@H]6CCCN6C(=O)[C@H](NC(C)=O)c6ccccc6)nc5c4)o3)cccc2[nH]1)c1ccccc1 (mixture of isomers) [Example J6.1, methyl ((1R)-2-((2S)-2-(4-(5-(2-((2S)-1-(acetamido (phenyl)acetyl)-2-pyrrolidinyl)-1H-benzimidazol-5-yl)-1,3-oxazol-2-yl)-1H-benzimidazol-2-yl)-1-pyrrolidinyl)-2-oxo-1-phenylethyl) carbamate] | < 4.57 | 
O=C(OCc1ccccc1)N1CCC[C@H]1c1nc2cc(C#Cc3ccc4[nH]c([C@@H]5CCCN5C(=O)[C@H]5CCCO5)nc4c3)ccc2[nH]1 [Example M54, benzyl (2S)-2-(5-((2-((2S)-1-((2R)-tetrahydro-2-furanylcarbonyl)-2-pyrrolidinyl)-1H-benzimidazol-5-yl)ethynyl)-1H-benzimidazol-2-yl)-1-pyrrolidine-carboxylate] | < 4.57 | 
O=C(c1cccnc1)N1CCC[C@H]1c1nc2ccc(C#Cc3ccc4[nH]c([C@@H]5CCCN5C(=O)[C@H]5CCCO5)nc4c3)cc2[nH]1 [Example M54.3, 5-((2-((2S)-1-(3-pyridinylcarbonyl)-2-pyrrolidinyl)-1H-benzimidazol-6-yl)ethynyl)-2-((2S)-1-((2R)-tetrahydro-2-furanylcarbonyl)-2-pyrrolidinyl)-1H-benzimidazole] | 4.57 to 99 | 
CN(C)[C@@H](C(=O)N1CCC[C@H]1c1nc2cc(-c3cnc(-c4ccc5nc([C@@H]6C[C@@H]7C[C@@H]7N6C(=O)[C@@H](c6ccccc6)N(C)C)[nH]c5c4)o3)ccc2[nH]1)c1ccccc1 [Example J23, (1R)-2-((2S)-2-(5-(2-(2-((1S,3S,5S)-2-((2R)-2-(dimethyl-amino)-2-phenylacetyl)-2-azabicyclo[3. 1.0]hex-3-yl)-1H-benzimidazol-5-yl)-1,3-oxazol-5-yl)-1H-benzimidazol-2-yl)-1-pyrrolidinyl)-N,N-dimethyl-2-oxo-1-phenyl-ethanamine] | < 4.57 | 
O=C(C1CCOC1)N1CCC[C@H]1c1nc2cc(C#Cc3ccc4[nH]c([C@@H]5CCCN5C(=O)C5CCOC5)nc4c3)ccc2[nH]1 (stereo partly drawn) [Example M14, 5,5′-(1,2-ethynediyl)bis(2-((2S)-1-(tetrahydro-3-furanylcarbonyl)-2-pyrrolidinyl)-1H-benzimidazole)] | 4.57 to 99 | 
O=C([C@H]1CCCO1)N1C[C@H](O)C[C@H]1c1nc2cc(C#Cc3ccc4[nH]c([C@@H]5C[C@@H](O)CN5C(=O)[C@H]5CCCO5)nc4c3)ccc2[nH]1 [Example M47.1, (3R,5S,3′R,5′S)-5,5′-(1,2-ethynediylbis(1H-benzimidazole-5,2-diyl))bis(1-((2R)-tetrahydro-2-furanylcarbonyl)-3-pyrrolidinol)] | 100 to 999 | 
O=C([C@H](O)c1ccccc1)N1CCC[C@H]1c1nc2cc(-c3cnc(-c4ccc5nc([C@@H]6CCCN6C(=O)[C@H](O)c6ccccc6)[nH]c5c4)o3)ccc2[nH]1 [Example J17, (1R)-2-((2S)-2-(5-(2-(2-((2S)-1-((2R)-2-hydroxy-2-phenylacetyl)-2-pyrrolidinyl)-1H-benzimidazol-6-yl)-1,3-oxazol-5-yl)-1H-benzimidazol-2-yl)-1-pyrrolidinyl)-2-oxo-1-phenylethanol] | < 4.57 | 
CCO[C@@H]1C[C@@H](c2nc3cc(C#Cc4ccc5nc([C@@H]6C[C@@H](OCC)CN6C(=O)OCc6ccccc6)[nH]c5c4)ccc3[nH]2)N(C(=O)OCc2ccccc2)C1 [Example F9, benzyl (2S,4R)-2-(5-((2-((2S,4R)-1-((benzyloxy)carbonyl)-4-ethoxy-2-pyrrolidinyl)-1H-benzimidazol-6-yl)ethynyl)-1H-benzimidazol-2-yl)-4-ethoxy-1-pyrrolidinecarboxylate] |  | EC50 [2]: 20 nM
C[C@H](NC(=O)[C@H]1CCCO1)c1nc2cc(CCc3ccc4[nH]c([C@H](C)NC(=O)[C@H]5CCCO5)nc4c3)ccc2[nH]1 [OL15, (2R,2′R)—N,N′-(1,2-ethanediylbis(1H-benzimidazole-5,2-diyl(1S)-1,1-ethanediyl))ditetrahydro-2-furancarboxamide] | 100 to 999 | 
O=C(Cc1ccccc1)N1CCC[C@H]1c1nc2cc(CCc3ccc4[nH]c([C@@H]5CCCN5C(=O)Cc5ccccc5)nc4c3)ccc2[nH]1 [Example M38] | < 4.57 | 
O=C(OCc1ccccc1)N1CCC[C@H]1c1nc2cc(-c3ccc4nc([C@@H]5CCCN5C(=O)OCc5ccccc5)[nH]c4c3)ccc2[nH]1 [Example M40, dibenzyl(2S,2′S)-2,2′-(1H,1′H-5,5′-bibenzimidazole-2,2′-diyl)di(1-pyrrolidinecarboxylate)] | 100 to 999 | 
O=C(Cc1cccnc1)N1CCC[C@H]1c1nc2cc(C#Cc3ccc4[nH]c([C@@H]5CCCN5C(=O)Cc5cccnc5)nc4c3)ccc2[nH]1 [Example M11, 5,5′-(1,2-ethynediyl)bis(2-((2S)-1-(3-pyridinylacetyl)-2-pyrrolidinyl)-1H-benzimidazole)] | < 4.57 | 
O=C(CC1CC1)N1CCC[C@H]1c1nc2cc(CCc3ccc4nc([C@@H]5CCCN5C(=O)CC5CC5)[nH]c4c3)ccc2[nH]1 [Example M44, 2-((2S)-1-(cyclopropylacetyl)-2-pyrrolidinyl)-5-(2-(2-((2S)-1-(cyclopropylacetyl)-2-pyrrolidinyl)-1H-benzimidazol-6-yl)ethyl)-1H-benzimidazole] | 100 to 999 | 
O=C(CC1CC1)N1CCC[C@H]1c1nc2cc(C#Cc3ccc4nc([C@@H]5CCCN5C(=O)CC5CC5)[nH]c4c3)ccc2[nH]1 [Example M8, 2-((2S)-1-(cyclopropylacetyl)-2-pyrrolidinyl)-5-((2-((2S)-1-(cyclopropylacetyl)-2-pyrrolidinyl)-1H-benzimidazol-6-yl)ethynyl)-1H-benzimidazole] | 4.57 to 99 | 
CC(=O)N1CCC[C@H]1c1nc2cc(C#Cc3ccc4nc([C@@H]5CCCN5C(C)=O)[nH]c4c3)ccc2[nH]1 [Example M54.28, 2-((2S)-1-acetyl-2-pyrrolidinyl)-5-((2-((2S)-1-acetyl-2-pyrrolidinyl)-1H-benzimidazol-6-yl)ethynyl)-1H-benzimidazole] | 100 to 999 | 
CC(=O)N1CCC[C@H]1c1nc2ccc(C#Cc3ccc4[nH]c([C@@H]5CCCN5C(=O)Cc5ccccn5)nc4c3)cc2[nH]1 [Example M54.20, 5-((2-((2S)-1-acetyl-2-pyrrolidinyl)-1H-benzimidazol-6-yl)ethynyl)-2-((2S)-1-(2-pyridinylacetyl)-2-pyrrolidinyl)-1H-benzimidazole] |  | EC50 (class symbols): 4.57 to 99 nM
COC(=O)N[C@@H](C(=O)N1C2C[C@@H]2C[C@H]1c1nc2cc(-c3ccc(-c4ccc5[nH]c([C@@H]6C[C@H]7CC7N6C(=O)[C@H](NC(=O)OC)c6ccccc6)nc5c4)cc3)ccc2[nH]1)c1ccccc1 (single isomer, unassigned) [Example M46.2] |  | EC50 (class symbols): < 4.57 nM
CC(C)C(=O)N1CCC[C@H]1c1nc2cc(C#Cc3ccc4[nH]c([C@@H]5CCCN5C(=O)C(C)C)nc4c3)ccc2[nH]1 [Example M3, 5,5′-(1,2-ethynediyl)bis(2-((2S)-1-isobutyryl-2-pyrrolidinyl)-1H-benzimidazole)] | 4.57 to 99 | 
CC(=O)N1CCC[C@H]1c1nc2cc(C#Cc3ccc4[nH]c([C@@H]5CCCN5C(=O)[C@@H](c5ccccc5)N(C)C)nc4c3)ccc2[nH]1 [Example M56, (1R)-2-((2S)-2-(5-((2-((2S)-1-acetyl-2-pyrrolidinyl)-1H-benzimidazol-5-yl)ethynyl)-1H-benzimidazol-2-yl)-1-pyrrolidinyl)-N,N-dimethyl-2-oxo-1-phenyl-ethanamine] | < 4.57 | 
COC(=O)N[C@H](C(=O)N1[C@@H]2C[C@@H]2C[C@H]1c1nc2cc(C#CC#Cc3ccc4[nH]c([C@@H]5C[C@H]6C[C@H]6N5C(=O)[C@@H](NC(=O)OC)C(C)C)nc4c3)ccc2[nH]1)C(C)C [Example M57.2, Methyl((1S)-1-(((1R,3S,5R)-3-(5-(4-(2-((1R,3S,5R)-2-((2S)-2-((methoxycarbonyl)amino)-3-methylbutanoyl)-2-azabicyclo[3.1.0]hex-3-yl)-1H-benzimidazol-5-yl)-1,3-butadiyn-1-yl)-1H-benzimidazol-2-yl)-2-azabicyclo[3.1.0]hex-2-yl)carbonyl)-2-methylpropyl)carbamate] | < 4.57 | 
O=C(C(=O)N1CCC[C@H]1c1nc2cc(C#Cc3ccc4[nH]c([C@@H]5CCCN5C(=O)C(=O)c5ccccc5)nc4c3)ccc2[nH]1)c1ccccc1 [Example M26.3, 2.2′-(1,2-ethynediylbis(1H-benzimidazole-5,2-diyl(2S)-2,1-pyrrolidinediyl))bis(2-oxo-1-phenylethanone)] |  | EC50 (class symbols): 100 to 999 nM
O=C([C@H](O)c1ccccc1)N1CCC[C@H]1c1nc2cc(-c3cnc(-c4cccc5[nH]c([C@@H]6CCCN6C(=O)[C@H](O)c6ccccc6)nc45)o3)ccc2[nH]1 [Example J9, (1R)-2-((2S)-2-(4-(5-(2-((2S)-1-((2R)-2-hydroxy-2-phenylacetyl)-2-pyrrolidinyl)-1H-benzimidazol-5-yl)-1,3-oxazol-2-yl)-1H-benzimidazol-2-yl)-1-pyrrolidinyl)-2-oxo-1-phenylethanol] | 4.57 to 99 | 
